Assay results reported in PubChem BioAssay AID1902 (Broad Institute, 2009).
The source made the active and inactive calls.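 Rule for the calls: active = EC50 no more than a set limit of log units above the highest dose; inactive = the rest.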

Each molecule was assayed against S. pyogenes SKKanGAS, kanamycin survival, BacTiterGlo, 6 h (assay: SKKanGAS survival reduction under kanamycin, dose response, streptokinase promoter inhibitor project, SKKanGAS strain, luminescence, dose confirmation (AID 1902);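 note: lower survival reflects blocked streptokinase promoter driving kanamycin resistance gene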).

| Compound | EC50 |
| --- | --- |
| CCOc1ccc(NC(=O)CN(C)C(=O)C2CC(=O)N(c3ccc4c(c3)OCCO4)C2)cc1OCC (centres undefined) | > 15 µM (inactive) |
| COc1ccc(C(=O)NC(=S)N(Cc2ccccc2)Cc2ccccc2)cc1 | 0.674 µM |
| C(=N\Nc1ncnc2sc3c(c12)CCC3)/c1cccs1 | 10.2 µM |
| Cc1cccc(C(=O)NC(C(=O)Nc2nc(-c3ccccn3)cs2)C(C)C)c1 (centres undefined) | 5.46 µM |
| COc1cc(/C=C/C(=O)c2ccc([N+](=O)[O-])o2)ccc1O | 2.98 µM |
| CCOc1ccc(/C=N/NC(=S)NC2CC3C=CC2C3)cc1 (centres undefined) | > 15 µM (inactive) |
| COc1ccc(/C=C/C(=O)NC(=S)NNC(=O)[C@H]2C[C@@H]2c2ccccc2)cc1OC | 0.362 µM |
| CC1Cc2ccccc2N1C(=S)NC(=O)c1ccc(Cl)cc1Cl (centres undefined) | 4.26 µM |
| Cc1ccccc1OCC(=O)NNC(=S)NC(=O)c1ccco1 | 0.338 µM |
| N#C/C(=C(/O)CN1CCN(c2ccccc2F)CC1)c1nc(-c2ccccc2)cs1 | 12.2 µM |
| NC(=O)c1cc(C(=O)Cc2ccccc2)c[nH]1 | 2.23 µM |
| Cc1cc2n(n1)C(c1c[nH]c3ccccc13)Nc1ccccc1-2 (centres undefined) | 7.65 µM |
| COCCNC(=O)c1c(NC(=O)c2ccc(Br)o2)n(Cc2ccccc2)c2nc3ccccc3nc12 | 2.44 µM |
| Cc1cccc(C)c1OCC(=O)NNC(=S)NC(=O)C1CC1 | 0.304 µM |
| Cc1ccc(-c2cc(-c3ccccc3Cl)[nH]n2)c(O)c1 | 2.19 µM |
| O=C(N/N=C/c1cc([N+](=O)[O-])ccc1O)C(O)(c1ccccc1)c1ccccc1 | 6.17 µM |
| C=C(C)COc1ccc(-c2[nH]ncc2Oc2ccc(OC)cc2)c(O)c1 | 4.05 µM |
| CC1(C)CC(=O)C(C2C3=C(CC(C)(C)CC3=O)Oc3c(Br)cc(Br)cc32)=C(O)C1 (centres undefined) | 4.06 µM |
| O=C(c1cc2ccccc2cc1O)N1CCN(c2ccccc2O)CC1 | 9.87 µM |
| Cc1sc2ncnc(N/N=C/c3ccccc3O)c2c1C | 4.09 µM |
| CN1CCN(NC(=O)Nc2cc(Cl)cc(Cl)c2)CC1 | 3.72 µM |
| COc1ccc(NC(=S)NNc2ccc([N+](=O)[O-])cc2S(=O)(=O)Nc2ccc(C)cc2C)cc1 | 8.34 µM |
| Cc1c(N/N=C(\C#N)C(=O)c2ccccc2)c(=O)n(-c2ccccc2)n1C | 1.44 µM |
| Nc1nc(CN2CCN(c3ccccc3)CC2)nc(N2CCCc3ccccc32)n1 | 0.879 µM |
| CC(C)c1ccc2c(c1)c(SC(C)(C)C)c(CC(C)(C)C(=O)O)n2Cc1ccc(Cl)cc1 | 0.875 µM |
| CCOc1ccc(/C=N/NC(=S)NC2CC3CC2C2C=CCC32)cc1 (centres undefined) | 5.48 µM |
| c1ccc(Oc2nc(-c3ccccn3)nc3ccccc23)cc1 | 9.41 µM |

| Compound | EC50 |
| --- | --- |
| O=C(N/N=C/c1c[nH]c2ccccc12)c1cc(-c2ccc(-c3ccccc3)cc2)n[nH]1 | 2.89 µM |
| COc1cccc(/C=N/NC(=O)c2cc3c(OC)ccc(OC)c3[nH]2)c1O | 2 µM |
| CNC(=O)C(=O)NCC1OCCN1S(=O)(=O)c1ccc(OC)c(OC)c1 (centres undefined) | > 15 µM (inactive) |
| CCCC(=O)NC(c1ccc(Cl)cc1)c1ccc2cccnc2c1O (centres undefined) | 7.2 µM |
| Cn1c(Oc2ccccc2NCc2cc(Br)ccc2O)cc(=O)n(C)c1=O | 4.46 µM |
| O=C1/C(=N\S(=O)(=O)c2cccs2)C([n+]2cccc(Cc3ccccc3)c2)=C([O-])c2ccccc21 | 1.68 µM |
| CCCCC1CCC(c2nc(-c3ccccn3)no2)CC1 (centres undefined) | 8.61 µM |
| COC(C(=O)Nc1ccnn1C1CCN(Cc2nccs2)CC1)c1ccccc1 (centres undefined) | > 15 µM (inactive) |
| Cc1cccc(-n2c(N)c(-c3nc4ccccc4n3C)c3nc4ccccc4nc32)c1 | 2.26 µM |
| COc1ccc2nc(-n3c(O)c(C4=c5ccccc5=NC4=O)[nH]c3=S)sc2c1 | 0.508 µM |
| Nc1ncc(Br)cc1S(=O)(=O)Nc1cc(C(F)(F)F)cc(C(F)(F)F)c1 | 6.39 µM |
| CC(=O)Nc1nnc(S(=O)(=O)N2CCN(c3ccc(Cl)cc3[N+](=O)[O-])CC2)s1 | > 15 µM (inactive) |
| Cc1cc(C)nc(N/N=C/c2cc(Br)ccc2O)n1 | 12.9 µM |
| CC(C)(C)c1cc[n+](C2=C([O-])c3ccccc3C(=O)/C2=N\S(=O)(=O)c2cccs2)cc1 | 2.02 µM |
| C/C(=N/NS(=O)(=O)c1ccc(Cl)cc1)c1cccc(NC(=O)c2ccc(Cl)cc2Cl)c1 | 4.79 µM |
| Cc1onc(-c2ccccc2)c1C(=O)NC(=S)NNC(=O)c1ccc(O)cc1O | 2.67 µM |
| O=C(c1ccc2c3n(nc2c1)-c1ccccc1CO3)N1CCCCC1 | 9.38 µM |
| COc1ccc(/C=C/C(=O)NC(=S)NNC(=O)c2ccco2)cc1 | 1.67 µM |
| Cc1nn(Cc2ccccc2Cl)c2sc(C(=O)Nc3ccccc3N3CCOCC3)cc12 | 2.92 µM |
| CCCCc1nc(NCc2ccccc2)c(C#N)c2c1CCCC2 | 8.22 µM |
| Cc1ccc(NC(=S)c2nc3ccccc3[nH]2)cc1 | 1.08 µM |
| CCC(CC)NC(=O)c1oc2ccccc2c1COc1ccccc1 | 13 µM |
| O=C(CSc1nnc(NC(=O)c2cccc(Cl)c2)s1)NCC1CCCO1 (centres undefined) | > 15 µM (inactive) |
| CCC(CO)Nc1ncnc2c1cnn2-c1ccc(OC)cc1 (centres undefined) | > 15 µM (inactive) |
| Cc1cccc(C(=O)OCC(=O)Nc2nnc(-c3ccccc3)o2)c1O | 2.2 µM |
| CCC(O)(CC)C(=O)N/N=C/c1cc(Br)cc(Br)c1O | 2.64 µM |
| COc1cc(C)ccc1OCCCOc1ccccc1Br | 5.9 µM |
